Laboratory results taken from US20220348572A1, “BRIDGED HETEROCYCLYL-SUBSTITUTED PYRIMIDINE COMPOUND, PREPARATION METHOD THEREFOR, AND PHARMACEUTICAL USE THEREOF” (The National Institutes of Pharmaceutical R&D Co., Ltd., priority 2019, published 2022).

Biological target: T1, JAK1 kinase (Homo sapiens, UniProt P23458)
T1 construct: purchased Invitrogen PV4744
Assay: In vitro inhibitory activity on JAK1 kinase (ADP-Glo Kinase Assay)
Type: biochemical
Settings: JAK1 kinase 4 nM, 1 mM ATP
Description: Test Example 1: Determination of In Vitro Inhibitory Activity of the Compounds of the Present Invention on JAK1 Kinase Experimental materials: JAK1 kinase (Invitrogen, PV4744), ATP (Promega, V915B), ADP-Glo Kinase Assay (Promega, V9101), IRS1 (Signalchem, 140-58-1000). Sample preparation: The compounds of the present invention and the control product were dissolved in DMSO solvent respectively to formulate into 10 mM initial liquid. The maximum concentration of the compound was 10 μM, 3-fold dilution, 10 concentration gradients, and duplicate wells for each concentration gradient. Experimental processs: 0.1 μL of the compound to be tested was transferred into a 384 reaction plate (PE, 6007290) via Echo and centrifuged at 1000 rpm/min for 1 min. 5 μL JAK1 kinase (final concentration of 4 nM) was transferred into the 384 reaction plate, which was then centrifuged at 1000 rpm/min for 1 min, and incubated at 25° C. for 15 min. 5 μL substrate mixture (1 mM ATP, IRS1 0.05 mg/ml, kinase buffer solution) was transferred into the 384 reaction plate, which was then centrifuged at 1000 rpm/min for 1 min, and incubated at 25° C. for 60 min. 10 μL ADP-Glo was transferred into the 384 reaction plate, which was then centrifuged at 1000 rpm/min for 1 min, and incubated at 25° C. for 40 min. 20 μL test solution was transferred into the 384 reaction plate, which was then centrifuged at 1000 rpm/min for 1 min and incubated at 25° C. for 40 min. RLU (Relative luminescence unit) signal was read by using an Envision multifunctional plate reader. The signal intensity was used to characterize the degree of the kinase activity. […] IC50 value of 0-100 nM is shown as A, IC50 value of 100-300 nM is shown as B, IC50 value of 300-1000 nM is shown as C, and IC50 value which is greater than 1000 nM is shown as D. NT means not tested.

T1 sequence (P23458 866-1154 limits assumed): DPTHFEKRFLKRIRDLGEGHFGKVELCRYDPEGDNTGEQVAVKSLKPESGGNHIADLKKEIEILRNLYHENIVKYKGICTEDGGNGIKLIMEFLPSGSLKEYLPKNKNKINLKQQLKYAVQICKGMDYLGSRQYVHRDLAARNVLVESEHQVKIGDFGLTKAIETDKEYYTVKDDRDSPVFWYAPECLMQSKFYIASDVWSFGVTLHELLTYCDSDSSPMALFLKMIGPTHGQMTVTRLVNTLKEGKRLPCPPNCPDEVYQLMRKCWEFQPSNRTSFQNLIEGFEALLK

Row | Compound | IC50 [nM]
1 | Cn1cc(Nc2nccc(C3=CC4CCC(C3)N4C(=O)NCCOC(F)(F)F)n2)cn1 (stereo not drawn) [Compound 58, 3-(2-((1-methyl-1H-pyrazol-4-yl)amino)pyrimidin-4-yl)-N-(2-(trifluoromethoxy)ethyl)-8-azabicyclo[3.2.1]oct-2-ene-8-carboxamide] | 100 to 300
2 | Cn1cc(Nc2nccc(C3=CC4CCC(C3)N4C(=O)N3CCC(C(F)(F)F)C3)n2)cn1 (stereo not drawn) [Compound 9, (3-(2-((1-methyl-1H-pyrazol-4-yl)amino)pyrimidin-4-yl)-8-azabicyclo[3.2.1]oct-2-en-8-yl)(3-(trifluoromethyl)pyrrolidin-1-yl)methanone] | > 1000
3 | CC(C)n1cc(Nc2nccc(C3=CC4CCC(C3)N4C(=O)[C@@H]3CC3(F)F)n2)cn1 (stereo partly drawn) [Compound 46, ((S)-2,2-Difluorocyclopropyl)(3-(2-((1-isopropyl-1H-pyrazol-4-yl)amino)pyrimidin-4-yl)-8-azabicyclo[3.2.1]oct-2-en-8-yl)methanone] | 100 to 300
4 | CCCS(=O)(=O)N1CC(N2C3C=C(c4ccnc(Nc5cnn(C)c5)n4)CC2CC3)C1 (stereo not drawn) [Compound 84, N-(1-methyl-1H-pyrazol-4-yl)-4-(8-(1-(propansulfonyl)azetidin-3-yl)-8-azabicyclo[3.2.1]oct-2-en-3-yl)pyrimidin-2-amine] | > 1000
5 | Cn1cc(Nc2nccc(C3=CC4CCC(C3)N4C(=O)C34CC(C(F)(F)F)(C3)C4)n2)cn1 (stereo not drawn) [Compound 71, (3-(2-((1-methyl-1H-pyrazol-4-yl)amino)pyrimidin-4-yl)-8-azabicyclo[3.2.1]oct-2-en-8-yl)(3-(trifluoromethyl)bicyclo[1.1.1]pentan-1-yl)methanone] | > 1000
6 | Cn1cc(Nc2nccc(C3=CC4CCC(C3)N4C(=O)C3CCOC3)n2)cn1 (stereo not drawn) [Compound 76, (3-(2-((1-methyl-1H-pyrazol-4-yl)amino)pyrimidin-4-yl)-8-azabicyclo[3.2.1]oct-2-en-8-yl)(tetrahydrofuran-3-yl)methanone] | 100 to 300
7 | Cn1cc(Nc2nccc(C3=CC4CCC(C3)N4C(=O)C(F)(F)C3CC3)n2)cn1 (stereo not drawn) [Compound 75, 2-cyclopropyl-2,2-difluoro-1-(3-(2-((1-methyl-1H-pyrazol-4-yl)amino)pyrimidin-4-yl)-8-azabicyclo[3.2.1]oct-2-en-8-yl)ethan-1-one] | 100 to 300
8 | NC(=O)C1(n2cc(Nc3nccc(C4=CC5CCC(C4)N5C(=O)[C@@H]4CC4(F)F)n3)cn2)CC1 (stereo partly drawn) [Compound 39, 1-(4-((4-(8-((S)-2,2-Difluorocyclopropane-1-carbonyl)-8-azabicyclo[3.2.1]oct-2-en-3-yl)pyrimidin-2-yl)amino)-1H-pyrazol-1-yl)cyclopropane-1-carboxamide] | > 1000
9 | C#CCC(=O)N1C2C=C(c3ccnc(Nc4cnn(C)c4)n3)CC1CC2 (stereo not drawn) [Compound 53, 1-(3-(2-((1-methyl-1H-pyrazol-4-yl)amino)pyrimidin-4-yl)-8-azabicyclo[3.2.1]oct-2-en-8-yl)but-3-yn-1-one] | > 1000
10 | Cn1cc(Nc2nccc(C3=CC4CCC(C3)N4C(=O)C3(C)COC3)n2)cn1 (stereo not drawn) [Compound 13, (3-(2-((1-methyl-1H-pyrazol-4-yl)amino)pyrimidin-4-yl)-8-azabicyclo[3.2.1]oct-2-en-8-yl)(3-methyloxetan-3-yl)methanone] | > 1000
11 | Cn1cc(Nc2nccc(C3=CC4CCC(C3)N4C(=O)CC#N)n2)cn1 (stereo not drawn) [Compound 61, 3-(3-(2-((1-methyl-1H-pyrazol-4-yl)amino)pyrimidin-4-yl)-8-azabicyclo[3.2.1]oct-2-en-8-yl)-3-oxopropionitrile] | 100 to 300
12 | O=C([C@@H]1CC1(F)F)N1C2C=C(c3ccnc(Nc4cnn(C5COC5)c4)n3)CC1CC2 (stereo partly drawn) [Compound 37, ((S)-2,2-difluorocyclopropyl)(3-(2-((1-(oxetan-3-yl)-1H-pyrazol-4-yl)amino)pyrimidin-4-yl)-8-azabicyclo[3.2.1]oct-2-en-8-yl)methanone] | 300 to 1000
13 | Cn1cc(Nc2nccc(C3=CC4CCC(C3)N4C(=O)C(=O)NCC(F)(F)F)n2)cn1 (stereo not drawn) [Compound 82, 2-(3-(2-((1-methyl-1H-pyrazol-4-yl)amino)pyrimidin-4-yl)-8-azabicyclo[3.2.1]oct-2-en-8-yl)-2-oxo-N-(2,2,2-trifluoroethyl)acetamide] | 300 to 1000
14 | Cn1cc(Nc2nccc(C3=CC4CCC(C3)N4C(=O)NC3COC3)n2)cn1 (stereo not drawn) [Compound 15, 3-(2-((1-methyl-1H-pyrazol-4-yl)amino)pyrimidin-4-yl)-N-(oxetan-3-yl)-8-azabicyclo[3.2.1]oct-2-ene-8-carboxamide] | 300 to 1000
15 | Cn1cc(Nc2ncc(C#N)c(C3=CC4CCC(C3)N4C(=O)NCC(F)(F)F)n2)cn1 (stereo not drawn) [Compound 35, 3-(5-cyano-2-((1-methyl-1H-pyrazol-4-yl)amino)pyrimidin-4-yl)-N-(2,2,2-trifluoroethyl)-8-azabicyclo[3.2.1]oct-2-ene-8-carboxamide] | 100 to 300
16 | Cn1cc(Nc2nccc(C3=CC4CCC(C3)N4C(=O)C3(C#N)CC3)n2)cn1 (stereo not drawn) [Compound 63, 1-(3-(2-((1-methyl-1H-pyrazol-4-yl)amino)pyrimidin-4-yl)-8-azabicyclo[3.2.1]oct-2-ene-8-formyl)cyclopropane-1-carbonitrile] | 300 to 1000
17 | Cn1cc(Nc2nccc(C3=CC4CCC(C3)N4C(=O)C34CC(F)(C3)C4)n2)cn1 (stereo not drawn) [Compound 74, (3-fluorobicyclo[1.1.1]pentan-1-yl)(3-(2-((1-methyl-1H-pyrazol-4-yl)amino)pyrimidin-4-yl)-8-azabicyclo[3.2.1]oct-2-en-8-yl)methanone] | > 1000

Continued, values first:

Row | IC50 [nM] | Compound
18 | < 100 | Cn1cc(Nc2ncc(Cl)c(C3=C[C@H]4CC[C@@H](C3)N4C(=O)[C@@H]3CC3(F)F)n2)cn1 [Compound 23-b, ((1R,5S)-3-(5-chloro-2-((1-methyl-1H-pyrazol-4-yl)amino)pyrimidin-4-yl)-8-azabicyclo[3.2.1]oct-2-en-8-yl)((S)-2,2-difluorocyclopropyl)methanone]
19 | < 100 | Cc1cnc(Nc2cnn(C)c2)nc1C1=C[C@@H]2CC[C@H](C1)N2C(=O)NCC(F)(F)F [Compound 19-a, (1S,5R)-3-(5-methyl-2-((1-methyl-1H-pyrazol-4-yl)amino)pyrimidin-4-yl)-N-(2,2,2-trifluoroethyl)-8-azabicyclo[3.2.1]oct-2-ene-8-carboxamide]
20 | < 100 | Cc1cnc(Nc2cnn(CCO)c2)nc1C1=CC2CCC(C1)N2C(=O)NCC(F)(F)F (stereo not drawn) [Compound 28, 3-(2-((1-(2-hydroxyethyl)-1H-pyrazol-4-yl)amino)-5-methylpyrimidin-4-yl)-N-(2,2,2-trifluoroethyl)-8-azabicyclo[3.2.1]oct-2-ene-8-carboxamide]
21 | < 100 | Cc1cnc(Nc2cn(C)nc2C)nc1C1=C[C@H]2CC[C@@H](C1)N2C(=O)NCC(F)(F)F [Compound 26-b, (1R,5S)-3-(2-((1,3-dimethyl-1H-pyrazol-4-yl)amino)-5-methylpyrimidin-4-yl)-N-(2,2,2-trifluoroethyl)-8-azabicyclo[3.2.1]oct-2-ene-8-carboxamide]
22 | < 100 | Cc1cnc(Nc2cnn(C)c2)nc1C1=CC2CCC(C1)N2C(=O)NCC(F)(F)F (stereo not drawn) [Compound 19, 3-(5-methyl-2-((1-methyl-1H-pyrazol-4-yl)amino)pyrimidin-4-yl)-N-(2,2,2-trifluoroethyl)-8-azabicyclo[3.2.1]oct-2-ene-8-carboxamide]
23 | < 100 | O=C(NCC(F)(F)F)N1C2C=C(c3nc(Nc4cnn(C(F)F)c4)ncc3F)CC1CC2 (stereo not drawn) [Compound 24, 3-(2-((1-(difluoromethyl)-1H-pyrazol-4-yl)amino)-5-fluoropyrimidin-4-yl)-N-(2,2,2-trifluoroethyl)-8-azabicyclo[3.2.1]oct-2-ene-8-carboxamide]
24 | < 100 | Cn1cc(Nc2ncc(Cl)c(C3=C[C@@H]4CC[C@H](C3)N4C(=O)[C@@H]3CC3(F)F)n2)cn1 [Compound 23-a, ((1S,5R)-3-(5-chloro-2-((1-methyl-1H-pyrazol-4-yl)amino)pyrimidin-4-yl)-8-azabicyclo[3.2.1]oct-2-en-8-yl)((S)-2,2-difluorocyclopropyl)methanone]
25 | < 100 | Cc1cnc(Nc2cnn(C)c2)nc1C1=C[C@H]2CC[C@@H](C1)N2C(=O)NCC(F)(F)F [Compound 19-b, (1R,5S)-3-(5-methyl-2-((1-methyl-1H-pyrazol-4-yl)amino)pyrimidin-4-yl)-N-(2,2,2-trifluoroethyl)-8-azabicyclo[3.2.1]oct-2-ene-8-carboxamide]
26 | < 100 | Cn1cc(Nc2nccc(C3=CC4CCC(C3)N4C(=O)C3CCC3C#N)n2)cn1 (stereo not drawn) [Compound 77, 2-(3-(2-((1-methyl-1H-pyrazol-4-yl)amino)pyrimidin-4-yl)-8-azabicyclo[3.2.1]oct-2-ene-8-formyl)cyclobutane-1-carbonitrile]
27 | < 100 | Cc1cnc(Nc2cnn(CC(C)(C)O)c2)nc1C1=C[C@@H]2CC[C@H](C1)N2C(=O)NCC(F)(F)F (single isomer, unassigned) [Compound 29-a]
